7 compounds from ChEMBL document CHEMBL1833788, “Selective water-soluble gelatinase inhibitor prodrugs” (J Med Chem, 2011) can be followed below.

In general, solubility refers to the concentration that dissolves in the medium under given conditions. A higher solubility goes with much dissolved substance. One may read the inhibition as the percentage by which the read-out fell short of the control.

Some results are limits rather than exact numbers.

For data set [1], the system named is Plasma. Kind of data set: Metabolic stability of the compound in human plasma at 10 mM after 2 mins by reversed-phase HPLC/UV analysis. The class given is ADME, cell-free. As to conditions: 10000 µM; call rule not given here.
Data set [2] is described as follows: Chemical stability of the compound in aqueous solution at 10 mg/ml by HPLC up to 2 hrs. The class given is physicochemical. The following applies: buffer.
Data set [3] in a line: Solubility of the compound in aqueous solution at 10 mg/ml by UV spectroscopy. The class given is physicochemical.
The subject of data set [4] is Plasma. Kind of data set: Half life in human plasma at 10 mM by reversed-phase HPLC/UV analysis. The class given is ADME, cell-free. As to conditions: 10000 µM.
Data set [5] relates to Blood. Description: Half life in human blood at 10 mM by reversed-phase HPLC/UV analysis. It is filed as ADME, tissue-based. As to conditions: 10000 µM.
Data set [6] relates to Blood. Kind of data set: Prodrug conversion in human blood assessed as release of 4-[4-((Thiiran-2-yl)methylsulphonyl)phenoxy]benzamine at 10 mM after 30 mins by reversed-phase HPLC/UV analysis. It is filed as ADME, tissue-based. As to conditions: 0.5 h, 10000 µM.
Data set [7] can be described thus: Chemical stability of the compound in aqueous solution at 10 mg/ml by HPLC after 1 month. The class given is physicochemical. As to conditions: buffer, 730.5 h.
The target in data set [8] is T1, Interstitial collagenase (Homo sapiens) (UniProt P03956).
T1 sequence (whole entry): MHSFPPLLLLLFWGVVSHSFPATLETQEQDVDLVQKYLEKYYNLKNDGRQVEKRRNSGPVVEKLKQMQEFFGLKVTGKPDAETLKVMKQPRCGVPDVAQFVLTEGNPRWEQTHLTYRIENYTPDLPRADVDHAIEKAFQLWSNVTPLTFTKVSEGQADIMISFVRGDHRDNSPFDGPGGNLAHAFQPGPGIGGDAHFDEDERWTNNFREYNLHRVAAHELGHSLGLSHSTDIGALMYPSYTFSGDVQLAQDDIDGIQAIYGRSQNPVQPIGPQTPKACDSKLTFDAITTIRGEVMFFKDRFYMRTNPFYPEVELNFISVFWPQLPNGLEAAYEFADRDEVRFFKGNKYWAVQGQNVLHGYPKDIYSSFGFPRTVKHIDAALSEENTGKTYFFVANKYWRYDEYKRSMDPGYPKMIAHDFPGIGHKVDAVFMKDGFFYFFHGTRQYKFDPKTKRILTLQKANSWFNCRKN
Description: Inhibition of human recombinant MMP1 catalytic domain assessed as hydrolysis of MOCAcPLGLA2pr(Dnp)AR-NH2 at 300 uM by fluorescence spectrofluorometry.

Data set [9] addresses Stromelysin-1 (Homo sapiens) (UniProt P08254). Description: Inhibition of human recombinant MMP3 catalytic domain assessed as hydrolysis of MOCAcPLGLA2pr(Dnp)AR-NH2 at 300 uM fluorescence by spectrofluorometry.

Chain of Stromelysin-1 (Homo sapiens) (P08254 100-477 limits assumed): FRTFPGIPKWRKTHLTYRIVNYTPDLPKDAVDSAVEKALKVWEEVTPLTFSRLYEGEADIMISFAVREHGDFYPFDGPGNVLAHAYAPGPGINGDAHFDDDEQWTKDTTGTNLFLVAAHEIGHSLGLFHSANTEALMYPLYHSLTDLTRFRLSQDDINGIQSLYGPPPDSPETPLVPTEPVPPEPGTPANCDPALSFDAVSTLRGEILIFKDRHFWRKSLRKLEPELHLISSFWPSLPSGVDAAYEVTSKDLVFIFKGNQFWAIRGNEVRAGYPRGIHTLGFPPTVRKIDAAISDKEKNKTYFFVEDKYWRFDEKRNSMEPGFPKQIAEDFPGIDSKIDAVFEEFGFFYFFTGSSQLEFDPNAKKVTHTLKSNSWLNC

Regarding `NCCCC[C@H](N)C(=O)Oc1ccc(Oc2ccc(S(=O)(=O)CC3CS3)cc2)cc1` (stereo not given in full), the Stability entry in data set [1] and in [2] was “Unstable” throughout. The compound further showed a solubility in [3] above 10000 µg/mL.

On to `NCC(=O)Nc1ccc(Oc2ccc(S(=O)(=O)CC3CS3)cc2)cc1` (stereo not given), for which the t1/2 was 32.4 min in data set [4] and 27.1 min in [5]. Further, the Drug metabolism result in [6] is on record as “Active”. The solubility in data set [3] is above 10000 µg/mL. In addition, in data set [7], the Stability result is on record as “Stable”.

Turning to `Nc1ccc(Oc2ccc(S(=O)(=O)CC3CS3)cc2)cc1O` (stereo not given), the figures for the inhibition in [8] and in [9] were 11% and 54%, respectively.

Regarding `N=C(N)NCCC[C@H](NC(=O)[C@@H](N)CCCNC(=N)N)C(=O)Nc1ccc(Oc2ccc(S(=O)(=O)CC3CS3)cc2)cc1` (stereo not given in full), the t1/2 in data set [4] was 11.8 min; in [5], 5.9 min. In data set [3], this compound displayed a solubility above 10000 µg/mL. In addition, the Stability result in [7] is “Stable”.

On to `NCC(=O)Oc1ccc(Oc2ccc(S(=O)(=O)CC3CS3)cc2)cc1` (stereo not given), for which the Stability result in [1] and in data set [2] was “Unstable” in each case. The same compound had a solubility in data set [3] above 10000 µg/mL.

`NCCCC[C@H](N)C(=O)Nc1ccc(Oc2ccc(S(=O)(=O)CC3CS3)cc2)cc1` (stereo not given in full): the results for the t1/2 in [4] and in data set [5] were 25.1 min and 15.3 min, respectively. The Drug metabolism entry in [6] is “Active”. For the same compound, in data set [3], the solubility was above 10000 µg/mL. Further, the Stability result in data set [7] was “Stable”.

In the case of `N[C@@H](CCC(=O)O)C(=O)Oc1ccc(Oc2ccc(S(=O)(=O)CC3CS3)cc2)cc1` (stereo not given in full), the Stability result in data set [1] and in [2] was “Unstable” throughout. For the same compound, in data set [3], the solubility was above 10000 µg/mL.
